Data as given in patent US10323022B2, “Pyrrolidinyl urea, pyrrolidinyl thiourea and pyrrolidinyl guanidine compounds as TrkA kinase inhibitors” (Array BioPharma Inc., priority 2011, dated 2019).

target: TrkA (Homo sapiens (Human), UniProt P04629); assay: TrkA Omnia Assay; type: biochemical; details: averaged IC50; 20 nM enzyme, 500 μM ATP, 10 μM peptide substrate
Procedure, shortened: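 Continuous fluorescent kinase read-out (ex 360 nm, em 485 nm) over 70 min, with initial rates fitted to 4- or 5-parameter logistic curves for IC50. Final conditions: 500 μM ATP, 10 μM Omnia Tyr Peptide #4, 20 nM TrkA, MOPS pH 7.5 buffer with MgCl2 and Triton X-100; enzyme and compound preincubated 10 min at ambient temperature.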

Sequence of TrkA (P04629 33-796): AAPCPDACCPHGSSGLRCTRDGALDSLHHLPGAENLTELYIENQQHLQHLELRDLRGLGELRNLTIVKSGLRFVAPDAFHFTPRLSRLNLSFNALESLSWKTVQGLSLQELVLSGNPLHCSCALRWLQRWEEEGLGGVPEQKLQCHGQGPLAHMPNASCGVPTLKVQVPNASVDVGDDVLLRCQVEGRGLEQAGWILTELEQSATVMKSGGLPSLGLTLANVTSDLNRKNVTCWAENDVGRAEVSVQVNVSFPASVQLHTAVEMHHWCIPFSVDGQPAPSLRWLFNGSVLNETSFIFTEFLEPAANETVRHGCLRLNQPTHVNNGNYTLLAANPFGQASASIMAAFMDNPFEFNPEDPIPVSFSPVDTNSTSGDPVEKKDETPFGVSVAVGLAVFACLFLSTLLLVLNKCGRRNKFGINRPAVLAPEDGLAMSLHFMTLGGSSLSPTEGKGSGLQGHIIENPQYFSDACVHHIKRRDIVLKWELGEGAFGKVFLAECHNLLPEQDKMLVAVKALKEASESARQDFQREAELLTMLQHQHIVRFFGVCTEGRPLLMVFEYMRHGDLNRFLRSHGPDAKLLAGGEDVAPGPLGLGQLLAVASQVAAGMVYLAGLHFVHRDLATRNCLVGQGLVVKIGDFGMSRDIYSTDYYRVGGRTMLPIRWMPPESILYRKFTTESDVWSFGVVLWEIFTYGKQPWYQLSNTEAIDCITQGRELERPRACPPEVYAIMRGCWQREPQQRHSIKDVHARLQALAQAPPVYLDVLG

Row | Compound | IC50 [nM]
1 | COCCN1C[C@@H](NC(=O)Nc2c(C)c(-c3cnn(C)c3)nn2-c2cncc(C)c2)[C@H](c2ccc(F)c(F)c2)C1 [Example 496, 1-((3S,4R)-4-(3,4-difluorophenyvl)-1-(2-methoxyethyl)pyrrolidin-3-yl)-3-(1′,4-dimethyl-1-(5-methylpyridin-3-yl)-1H, 1′H-[3,4′-bipyrazol]-5-yl)urea] | 100 to 1000
2 | COCCN1C[C@@H](NC(=O)Nc2c(C)c(-c3cnn(C)c3)nn2-c2cncc(Cl)c2)[C@H](c2ccc(F)c(F)c2)C1 [Example 497, 1-(1-(5-chloropyridin-3-yl)-1′,4-dimethyl-1H, 1′H-[3,4′-bipyrazol]-5-yl)-3-((3 S,4R)-4-(3,4-difluorophenyl)-1-(2-methoxyethyl)pyrrolidin-3-yl)urea] | 100 to 1000
3 | COCCN1C[C@@H](NC(=O)Nc2c(C)c(-c3cnc(N)nc3)nn2-c2ccccc2)[C@H](c2ccc(F)c(F)c2)C1 [Example 512, 1-(3-(2-aminopyrimidin-5-yl)-4-methyl-1-phenyl-1H-pyrazol-5-yl)-3-((3S,4R)-4-(3,4-difluorophenyl)-1-(2-methoxyethyl)pyrrolidin-3-yl)urea] | < 100
4 | COCCN1C[C@@H](NC(=O)Nc2c(C)c(-c3sc(C)nc3C)nn2-c2ccccc2)[C@H](c2ccc(F)c(F)c2)C1 [Example 513, 1-((3S,4R)-4-(3,4-difluorophenyl)-1-(2-methoxyethyl)pyrrolidin-3-yl)-3-(3-(2,4-dimethylthiazol-5-yl)-4-methyl-1-phenyl-1H-pyrazol-5-yl)urea] | < 100
5 | COCCN1C[C@@H](NC(=O)Nc2c(C)c(-c3cc(C)nc(C)c3)nn2-c2ccccc2)[C@H](c2ccc(F)c(F)c2)C1 [Example 514, 1-((3S,4R)-4-(3,4-difluorophenyl)-1-(2-methoxyethyl)pyrrolidin-3-yl)-3-(3-(2,6-dimethylpyridin-4-yl)-4-methyl-1-phenyl-1H-pyrazol-5-yl)urea] | < 100
6 | COCCN1C[C@@H](NC(=O)Nc2c(C)c(-c3ccc(N)nc3)nn2-c2ccccc2)[C@H](c2ccc(F)c(F)c2)C1 [Example 515, 1-(3-(6-aminopyridin-3-yl)-4-methyl-1-phenyl-1H-pyrazol-5-yl)-3-((3S,4R)-4-(3,4-difluorophenyl)-1-(2-methoxyethyl)pyrrolidin-3-yl)urea] | < 100
7 | COCCN1C[C@@H](NC(=O)Nc2c(C)c(Br)nn2-c2ccccc2)[C@H](c2ccc(F)cc2)C1 [Example 516, 1-(3-bromo-4-methyl-1-phenyl-1H-pyrazol-5-yl)-3-((3S,4R)-4-(4-fluorophenyl)-1-(2-methoxyethyl)pyrrolidin-3-yl)urea] | < 100
8 | COCCN1C[C@@H](NC(=O)Nc2c(C)c(-c3ccc(=O)n(CC(F)(F)F)c3)nn2-c2ccccc2)[C@H](c2ccc(F)c(F)c2)C1 [Example 517, 1-((3S,4R)-4-(3,4-difluorophenyl)-1-(2-methoxyethyl)pyrrolidin-3-yl)-3-(4-methyl-3-(6-oxo-1-(2,2,2-trifluoroethyl)-1,6-dihydropyridin-3-yl)-1-phenyl-1H-pyrazol-5-yl)urea] | < 100
9 | COCCN1C[C@@H](NC(=O)Nc2c(C)c(-c3cnn(C(C)C)c3)nn2-c2ccccc2)[C@H](c2ccc(F)cc2)C1 [Example 518, 1-((3S,4R)-4-(4-fluorophenyl)-1-(2-methoxyethyl)pyrrolidin-3-yl)-3-(1′-isopropyl-4-methyl-1-phenyl-1H, 1′H-[3,4′-bipyrazol]-5-yl)urea] | < 100
10 | COCCN1C[C@@H](NC(=O)Nc2c(C)c(-c3ccc(=O)n(C)c3)nn2-c2ccccc2)[C@H](c2ccc(F)cc2)C1 [Example 519, 1-((3S,4R)-4-(4-fluorophenyl)-1-(2-methoxyethyl)pyrrolidin-3-yl)-3-(4-methyl-3-(1-methyl-6-oxo-1,6-dihydropyridin-3-yl)-1-phenyl-1H-pyrazol-5-yl)urea] | < 100
11 | Cc1c(Br)nn(-c2ccccc2)c1NC(=O)N[C@H]1CN(CC(F)(F)F)C[C@@H]1c1ccccc1 [Example 520, 1-(3-bromo-4-methyl-1-phenyl-1H-pyrazol-5-yl)-3-((3R,4S)-4-phenyl-1-(2,2,2-trifluoroethyl)pyrrolidin-3-yl)urea] | < 100

Results, then the molecule that gave them:

Row | IC50 [nM] | Compound
12 | < 100 | COCCN1C[C@@H](NC(=O)Nc2c(C)c(-c3cnn(C)c3)nn2-c2cncc(F)c2)[C@H](c2ccc(F)c(F)c2)C1 [Example 495, 1-((3S,4R)-4-(3,4-difluorophenyl)-1-(2-methoxyethyl)pyrrolidin-3-yl)-3-(1-(5-fluoropyridin-3-yl)-1′,4-dimethyl-1H, 1′H-[3,4′-bipyrazol]-5-yl)urea]
13 | < 100 | COCCN1C[C@@H](NC(=O)Nc2c(C)c(-c3cnn(C(OCC(F)(F)F)C(F)(F)F)c3)nn2-c2ccccc2)[C@H](c2ccc(F)c(F)c2)C1 (stereo partly drawn) [Example 498, 1-((3S,4R)-4-(3,4-difluorophenyvl)-1-(2-methoxyethyl)pyrrolidin-3-yl)-3-(4-methyl-1-phenyl-1′-(2,2,2-trifluoro-1-(2,2,2-trifluoroethoxy)ethyl)-1H,1′H-[3,4′-bipyrazol]-5-yl)urea]
14 | < 100 | COCCN1C[C@@H](NC(=O)Nc2c(C)c(-c3cnn(CC(F)(F)F)c3)nn2-c2ccccc2)[C@H](c2ccc(F)c(F)c2)C1 [Example 499, 1-((3S,4R)-4-(3,4-difluorophenyl)-1-(2-methoxyethyl)pyrrolidin-3-yl)-3-(4-methyl-1-phenyl-1′-(2,2,2-trifluoroethyl)-1H, 1′H-[3,4′-bipyrazol]-5-yl)urea]
15 | < 100 | COCCN1C[C@@H](NC(=O)Nc2c(C)c(-c3cnn(CC4CC4)c3)nn2-c2ccccc2)[C@H](c2ccc(F)c(F)c2)C1 [Example 500, 1-(1′-(cyclopropylmethyl)-4-methyl-l-phenyl-1H, 1′H-[3,4′-bipyrazol]-5-yl)-3-((3S,4R)-4-(3,4-difluorophenyl)-1-(2-methoxyethyl)pyrrolidin-3-yl)urea]
16 | < 100 | COCCN1C[C@@H](NC(=O)Nc2c(C)c(-c3cnn(C(=O)C4CC4)c3)nn2-c2ccccc2)[C@H](c2ccc(F)c(F)c2)C1 [Example 501, 1-(1′-(cyclopropanecarbonyl)-4-methyl-1-phenyl-1H,1′H-[3,4′-bipyrazol]-5-yl)-3-((3S,4R)-4-(3,4-difluorophenyl)-1-(2-methoxyethyl)pyrrolidin-3-yl)urea]
17 | < 100 | COCCN1C[C@@H](NC(=O)Nc2c(C)c(-c3cnn(S(C)(=O)=O)c3)nn2-c2ccccc2)[C@H](c2ccc(F)c(F)c2)C1 [Example 502, 1-((3S,4R)-4-(3,4-difluorophenyl)-1-(2-methoxyethyl)pyrrolidin-3-yl)-3-(4-methyl-1′-(methylsulfonyl)-1-phenyl-1H, 1′H-[3,4′-bipyrazol]-5-yl)urea]
18 | < 100 | COCCN1C[C@@H](NC(=O)Nc2c(C)c(-c3cnn(C(C)C)c3)nn2-c2ccccc2)[C@H](c2ccc(F)c(F)c2)C1 [Example 503, 1-((3S,4R)-4-(3,4-difluorophenyvl)-1-(2-methoxyethyl)pyrrolidin-3-yl)-3-(1′-isopropyl-4-methyl-1-phenyl-1H, 1′H-[3,4′-bipyrazol]-5-yl)urea]
19 | < 100 | COCCN1C[C@@H](NC(=O)Nc2c(C)c(-c3cncnc3)nn2-c2ccccc2)[C@H](c2ccc(F)c(F)c2)C1 [Example 504, 1-((3S,4R)-4-(3,4-difluorophenyl)-1-(2-methoxyethyl)pyrrolidin-3-yl)-3-(4-methyl-1-phenyl-3-(pyrimidin-5-yl)-1H-pyrazol-5-yl)urea]
20 | < 100 | COCCN1C[C@@H](NC(=O)Nc2c(C)c(-c3ccn(C)c(=O)c3)nn2-c2ccccc2)[C@H](c2ccc(F)c(F)c2)C1 [Example 505, 1-((3S,4R)-4-(3,4-difluorophenyl)-1-(2-methoxyethyl)pyrrolidin-3-yl)-3-(4-methyl-3-(1-methyl-2-oxo-1,2-dihydropyridin-4-yl)-1-phenyl-1H-pyrazol-5-yl)urea]
21 | < 100 | COCCN1C[C@@H](NC(=O)Nc2c(C)c(-c3ccc(=O)n(C)c3)nn2-c2ccccc2)[C@H](c2ccc(F)c(F)c2)C1 [Example 506, 1-((3S,4R)-4-(3,4-difluorophenyl)-1-(2-methoxyethyl)pyrrolidin-3-yl)-3-(4-methyl-3-(1-methyl-6-oxo-1,6-dihydropyridin-3-yl)-1-phenyl-1H-pyrazol-5-yl)urea]
22 | < 100 | COCCN1C[C@@H](NC(=O)Nc2c(C)c(-c3cnn(C)c3C)nn2-c2ccccc2)[C@H](c2ccc(F)c(F)c2)C1 [Example 507, 1-((3S,4R)-4-(3,4-difluorophenyl)-1-(2-methoxyethyl)pyrrolidin-3-yl)-3-(1′,4,5′-trimethyl-1-phenyl-1H,1′H-[3,4′-bipyrazol]-5-yl)urea]
23 | < 100 | COCCN1C[C@@H](NC(=O)Nc2c(C)c(-c3cn(C)nc3C)nn2-c2ccccc2)[C@H](c2ccc(F)c(F)c2)C1 [Example 508, 1-((3S,4R)-4-(3,4-difluorophenyl)-1-(2-methoxyethyl)pyrrolidin-3-yl)-3-(1′,3′,4-trimethyl-1-phenyl-1H,1′H-[3,4′-bipyrazol]-5-yl)urea]
24 | < 100 | COCCN1C[C@@H](NC(=O)Nc2c(C)c(-c3cnn(C4CC4)c3)nn2-c2ccccc2)[C@H](c2ccc(F)c(F)c2)C1 [Example 509, 1-(1′-cyclopropyl-4-methyl-1-phenyl-1H,1′H-[3,4′-bipyrazol]-5-yl)-3-((3S,4R)-4-(3,4-difluorophenyl)-1-(2-methoxyethyl)pyrrolidin-3-yl)urea]
25 | < 100 | COCCN1C[C@@H](NC(=O)Nc2c(C)c(-c3cnc(C)s3)nn2-c2ccccc2)[C@H](c2ccc(F)c(F)c2)C1 [Example 510, 1-((3S,4R)-4-(3,4-difluorophenyl)-1-(2-methoxyethyl)pyrrolidin-3-yl)-3-(4-methyl-3-(2-methylthiazol-5-yl)-1-phenyl-1H-pyrazol-5-yl)urea]
26 | < 100 | COCCN1C[C@@H](NC(=O)Nc2c(C)c(-c3cnc(C)nc3)nn2-c2ccccc2)[C@H](c2ccc(F)c(F)c2)C1 [Example 511, 1-((3S,4R)-4-(3,4-difluorophenyl)-1-(2-methoxyethyl)pyrrolidin-3-yl)-3-(4-methyl-3-(2-methylpyrimidin-5-yl)-1-phenyl-1H-pyrazol-5-yl)urea]
